Source: PMC8126654, “Novel Pan-Pim Kinase Inhibitors With Imidazopyridazine and Thiazolidinedione Structure Exert Potent Antitumor Activities” (Frontiers in Pharmacology, 2021)

Columns and labels:
FLT3 = biological target: T1, FLT3 (Homo sapiens, UniProt P36888); test: FLT3 kinase activity assay (FRET-based Z'-LYTE); assay type: biochemical; settings: ATP 500 µM; read-out: IC50 against FLT3 kinase
T1 construct: purchased Life Technologies; Thermo Fisher Scientific Inc
T1 sequence (P36888 27-993): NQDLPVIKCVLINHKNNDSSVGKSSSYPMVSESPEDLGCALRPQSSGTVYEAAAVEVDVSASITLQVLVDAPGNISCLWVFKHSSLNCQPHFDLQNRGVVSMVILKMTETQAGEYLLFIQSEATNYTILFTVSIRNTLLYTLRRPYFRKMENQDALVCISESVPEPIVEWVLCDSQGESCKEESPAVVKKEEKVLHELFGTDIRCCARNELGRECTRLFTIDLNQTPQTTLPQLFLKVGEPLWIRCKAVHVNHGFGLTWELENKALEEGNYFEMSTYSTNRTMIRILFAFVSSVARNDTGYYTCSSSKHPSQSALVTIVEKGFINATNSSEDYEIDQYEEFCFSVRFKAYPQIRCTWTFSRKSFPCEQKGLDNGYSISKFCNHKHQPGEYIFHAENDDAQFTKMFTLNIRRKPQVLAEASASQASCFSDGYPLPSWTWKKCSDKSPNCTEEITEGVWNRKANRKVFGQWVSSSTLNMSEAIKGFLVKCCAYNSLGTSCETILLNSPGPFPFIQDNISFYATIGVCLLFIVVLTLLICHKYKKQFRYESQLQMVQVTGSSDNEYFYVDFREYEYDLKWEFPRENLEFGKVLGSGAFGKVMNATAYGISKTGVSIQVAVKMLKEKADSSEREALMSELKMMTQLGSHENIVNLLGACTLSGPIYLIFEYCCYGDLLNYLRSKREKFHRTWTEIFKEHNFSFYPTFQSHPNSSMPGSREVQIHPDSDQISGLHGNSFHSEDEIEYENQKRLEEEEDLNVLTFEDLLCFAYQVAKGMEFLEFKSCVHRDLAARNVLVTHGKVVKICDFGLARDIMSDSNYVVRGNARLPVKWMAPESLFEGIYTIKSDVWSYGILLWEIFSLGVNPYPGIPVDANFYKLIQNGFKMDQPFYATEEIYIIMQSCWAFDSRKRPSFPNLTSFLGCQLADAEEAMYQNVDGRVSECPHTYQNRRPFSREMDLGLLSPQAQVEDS
Experimental: The inhibition ratios of test compounds for Pim-1, 2 (Life Technologies; Thermo Fisher Scientific Inc., MA, United States), 3 (Merck KgaA), and FLT3 (Life Technologies; Thermo Fisher Scientific Inc., MA, United States) were determined using a modified FRET-based Z′-LYTE kinase assay kit (Invitrogen; Thermo Fisher Scientific Inc.). The Ser/Thr 7 peptide and Tyr-2 peptide were used as substrates for Pim kinases and FLT3, respectively. The reactions were carried out in a 384-well plate with a 10 µL reaction volume per well containing 1 µM substrates in 50 mM HEPES buffer with pH 7.5, 0.01% BRIJ-35, 10 mM MgCl2, 1 mM EGTA, and an appropriate amount of kinases (Pim-1: 0.03 μg/ml, Pim-2: 0.2 μg/ml, Pim-3: 0.2 μg/ml, FLT3: 0.1 μg/ml) with test compounds. The final reaction concentrations of ATP were 400, 5, 100, and 500 µM for Pim-1, 2, 3, and FLT3 respectively. After 1 h incubation, reactions were developed and terminated, and fluorescence ratios were calculated following the manufacturer’s protocol.

MV-4-11 = test: Immunoblot analysis of phosphorylation of Pim kinase substrates, MV-4-11; assay type: cell-based; settings: MV-4-11, 4 h
Experimental: Cells were plated overnight and then treated with test compounds for 4 hours. Then, the cells were lyzed in solubilization buffer [10 mM Tris-HCl (pH7.4), 0.1% (w/v) NP-40, 0.1% (w/v) sodium deoxycholate, 0.1% (w/v) SDS, 0.15 M NaCl, 1 mM EDTA, 10 µM aprotinin] with phosphatase inhibitor cocktails (Nakarai Tesque, Kyoto, Japan), and subjected to SDS-PAGE using 15% (w/v) gels under reducing conditions. The separated proteins were electrotransferred to Immobilon transfer membranes (Merck Millipore, Darmstadt, Germany). Then, each membrane was reacted with primary antibodies, which were subsequently complexed with appropriate horseradish peroxidase-conjugated secondary antibodies. Signals were detected using the ECL Western Blotting Detection System (GE Healthcare Life Sciences) and protein expression was quantified with a LAS-3000 Luminescent Image Analyzer (GE Healthcare Life Sciences). The protein bands were quantified using ImageQuant TL software (GE Healthcare Life Sciences).

HCT116 = test: Apoptosis assay in HCT116 (Hoechst 33342 nuclear morphology, Cell Death ELISA); assay type: cell-based
Experimental: For caspase-3/7 activity assay, the Caspase-Glo 3/7 Assay System (Promega, Madison, WI) was used according to the manufacturer’s protocol. […] The Caspase-Glo 3/7 reagent was then added to each well and incubated for 1 h, and caspase-3/7 activity was measured. […] After treatment, cells were stained in 0.5 μg/ml Hoechst 33342 for 30 min. Subsequently, cell morphology was observed and images were captured from random visual fields using fluorescence microscopy (Biozero BZ-8100, Keyence, Osaka, Japan). […] After treatment, DNA fragmentation was detected using the Cell Death Detection ELISA^PLUS (Roche Applied Science, Mannheim, Germany).

SMILES: CN1CCN(c2ccc(-c3cnc4ccc(/C=C5\SC(=O)NC5=O)nn34)cc2)CC1 [YPC-21440, (Z)-5-([3-{4-(4-methylpiperazin-1-yl)phenyl}imidazo[1,2-b]pyridazin-6-yl]methylene)thiazolidine-2,4-dione]
- IC50 (FLT3): 390 nM
- Phosphorylation level of 4EBP (MV-4-11): decreased
- Chromatin condensation (HCT116; HCT116, 1 µM, 48 h): induced
- DNA fragmentation (HCT116; HCT116, ≥ 0.3 µM, 24 h): induced
